In patent US10676468B2, “N-(3-heteroarylaryl)-4-arylarylcarboxamides and analogs as hedgehog pathway inhibitors and use thereof” (IMPACT Therapeutics, Inc., priority 2012, dated 2020):
Counter-ions that a name gives are not always drawn.

Key:
Type in all cases: cell-based, mouse
[1] = tested on: Hedgehog Signaling Pathway; assay: SHH-induced differentiation of C3H10T1/2 cells into osteoblastic cells, intracellular alkaline phosphatase activity; details: 10 nM SHH-N, 5 days, alkaline phosphatase activity (OD405), read-out: IC50 values of compounds that inhibit Hh pathway
Outline: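 Mouse C3H10T1/2 cells were induced with 10 nM SHH-N alongside test compound (10 μM–10 nM) for 5 days at 37 °C. Cells were lysed in 0.2% Triton, and alkaline phosphatase activity was read at OD405 over 30 min at 37 °C with the background reading subtracted. IC50 came from a nonlinear fit against log concentration.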

[2] = tested on: Hedgehog Signaling Pathway; assay: Gli-Luc reporter gene cell assay in C3H10T1/2/Gli-Luc cells stimulated with Shh; details: 30 nM Shh, luciferase activity (RLU), read-out: IC50 values of compounds that inhibit Hh pathway
Outline: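 C3H10T1/2 cells stably carrying Gli-responsive luciferase were seeded overnight, then treated 24 h at 37 °C with compound (7-point dilution series, DMSO control) plus Shh (30 nM in added medium). Lysate luciferase RLU fitted against log concentration to derive IC50.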

[3] = tested on: Hedgehog Signaling Pathway; assay: SAG-induced differentiation of C3H10T1/2 cells into osteoblastic cells, intracellular alkaline phosphatase activity; details: 1 μM SAG, 5 days, alkaline phosphatase activity (OD405), read-out: IC50 values of compounds that inhibit Hh pathway
Outline: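 Mouse C3H10T1/2 cells were induced with SAG and exposed to compound (10 μM to 1 nM) for 5 days at 37 °C. Cells were lysed in 0.2% Triton, and alkaline phosphatase activity was read as OD405 over 30 min at 37 °C in pH 9.8 substrate buffer. IC50 came from a non-linear fit of background-subtracted OD405 against log concentration.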

[4] = Mus musculus, C3H 10T1/2, 120 h

Row | Molecule | IC50 [1, 4] [nM] | IC50 ([2]; Mus musculus, C3H 10T1/2, 24 h) [nM] | IC50 [3, 4] [nM] | IC50 [1] [nM] | IC50 ([2]; 24 hours) [nM] | IC50 [3] [nM]
1 | C[C@@H]1CN(c2ccc(C(=O)Nc3ccc(Cl)c(-c4nc5ccncc5[nH]4)c3)c(Cl)c2)C[C@H](C)N1C [Example 196, N-(3-(3H-imidazo[4,5-c]pyridin-2-yl)-4-chlorophenyl)-2-chloro-4-((3S,5R)-3,4,5-trimethylpiperazin-1-yl)benzamide] | 54 | 5.7 | 157 | – | – | –
2 | Cc1cc(N2C[C@@H](C)N(C)[C@@H](C)C2)ccc1C(=O)Nc1ccc(Cl)c(-c2nc3ccncc3[nH]2)c1 [Example 197, N-(3-(3H-imidazo[4,5-c]pyridin-2-yl)-4-chlorophenyl)-2-methyl-4-((3S,5R)-3,4,5-trimethylpiperazin-1-yl)benzamide] | 115 | 9.5 | 306 | – | – | –
3 | Cc1cc(N2C[C@@H](C)N(C)[C@@H](C)C2)ccc1C(=O)Nc1ccc(Cl)c(-c2nc3cscc3[nH]2)c1 [Example 198] | – | – | – | 0.3 | 0.29 | 26
4 | C[C@@H]1CN(c2ccc(C(=O)Nc3ccc(Cl)c(-c4cnc5ccccc5n4)c3)c(Cl)c2)C[C@H](C)N1C [Example 204, N-(3-(quinoxalin-2-yl)-4-chlorophenyl)-2-chloro-4-((3S,5R)-3,4,5-trimethylpiperazin-1-yl)benzamide] | 49 | 9.6 | 201 | – | – | –
5 | C[C@@H]1CN(c2ccc(C(=O)Nc3ccc(Cl)c(-c4cn5ccsc5n4)c3)c(Cl)c2)C[C@H](C)N1C [Example 205, N-(3-(imidazo[2,1-b]thiazol-6-yl)-4-chlorophenyl)-2-chloro-4-((3S,5R)-3,4,5-trimethylpiperazin-1-yl)benzamide] | 94 | 29 | 250 | – | – | –
6 | Cc1cc(N2C[C@@H](C)N(C)[C@@H](C)C2)ccc1C(=O)Nc1ccc(Cl)c(-c2nc3ccccc3o2)c1 [Example 206, N-(3-(benzo[d]oxazol-2-yl)-4-chlorophenyl)-2-methyl-4-((3S,5R)-3,4,5-trimethylpiperazin-1-yl)benzamide] | 46 | 27 | 244 | – | – | –
7 | C[C@@H]1CN(c2ccc(C(=O)Nc3ccc(Cl)c(-c4nc5ccccc5s4)c3)c(Cl)c2)C[C@H](C)N1C [Example 207, N-(3-(benzo[d]thiazol-2-yl)-4-chlorophenyl)-2-chloro-4-((3S,5R)-3,4,5-trimethylpiperazin-1-yl)benzamide] | 31 | 8.5 | 158 | – | – | –
8 | C[C@@H]1CN(c2ccc(C(=O)Nc3ccc(Cl)c(-c4ncccn4)c3)c(Cl)c2)C[C@H](C)N1C [Example 209, N-(3-(pyrimidin-2-yl)-4-chlorophenyl)-2-chloro-4-((3S,5R)-3,4,5-trimethylpiperazin-1-yl)benzamide] | > 10000 | > 10000 | 1800 | – | – | –
9 | CS(=O)(=O)c1ccc(C(=O)Nc2ccc(Cl)c(-c3ccccn3)c2)c(Cl)c1 [GDC-0449, reference compound] | 38 | 43 | 108 | – | – | –
10 | N-(3-(1H-benzo[d]imidazol-2-yl)-4-chlorophenyl)-2-cyano-4-((3S,5R)-3,4,5-trimethylpiperazin-1-yl)benzamide Dihydrochloride [Example 134] | – | – | – | > 10000 | > 10000 | > 10000
11 | N-(3-(5-(furan-2-yl)-1H-imidazol-2-yl)-4-chlorophenyl)-2-cyano-4-((3S,5R)-3,4,5-trimethylpiperazin-1-yl)benzamide [Example 147] | – | – | – | > 10000 | > 10000 | > 10000

Next, values leading:

Row | IC50 [1, 4] [nM] | IC50 ([2]; Mus musculus, C3H 10T1/2, 24 h) [nM] | IC50 [3, 4] [nM] | IC50 [1] [nM] | IC50 ([2]; 24 hours) [nM] | IC50 [3] [nM] | Molecule
12 | 22 | 6.6 | 90 | – | – | – | Cc1cc(N2C[C@@H](C)N(C)[C@@H](C)C2)ccc1C(=O)Nc1ccc(Cl)c(-c2ncc(C3CCCC3)[nH]2)c1 [Example 183, N-(3-(5-cyclopentyl-1H-imidazol-2-yl)-4-chlorophenyl)-2-methyl-4-((3S,5R)-3,4,5-trimethylpiperazin-1-yl)benzamide]
13 | 28 | 10 | 184 | – | – | – | C[C@@H]1CN(c2ccc(C(=O)Nc3ccc(Cl)c(-c4ncc(C5CCCCC5)[nH]4)c3)c(Cl)c2)C[C@H](C)N1C [Example 184, N-(3-(5-cyclohexyl-1H-imidazol-2-yl)-4-chlorophenyl)-2-chloro-4-((3S,5R)-3,4,5-trimethylpiperazin-1-yl)benzamide]
14 | 6.1 | 17 | 169 | – | – | – | Cc1cc(N2C[C@@H](C)N(C)[C@@H](C)C2)ccc1C(=O)Nc1ccc(Cl)c(-c2ncc(C3CCCCC3)[nH]2)c1 [Example 185, N-(3-(5-cyclohexyl-1H-imidazol-2-yl)-4-chlorophenyl)-2-methyl-4-((3S,5R)-3,4,5-trimethylpiperazin-1-yl)benzamide]
15 | 5.2 | 0.82 | 30 | – | – | – | CC(C)c1cnc(-c2cc(NC(=O)c3ccc(N4C[C@@H](C)N(C)[C@@H](C)C4)cc3Cl)ccc2Cl)[nH]1 [Example 189, N-(3-(5-isopropyl-1H-imidazol-2-yl)-4-chlorophenyl)-2-chloro-4-((3S,5R)-3,4,5-trimethylpiperazin-1-yl)benzamide Dihydrochloride]
16 | 8.1 | 8.9 | 258 | – | – | – | C[C@@H]1CN(c2ccc(C(=O)Nc3ccc(Cl)c(-c4nc5cccnc5[nH]4)c3)c(Cl)c2)C[C@H](C)N1C [Example 195, N-(3-(3H-imidazo[4,5-b]pyridin-2-yl)-4-chlorophenyl)-2-chloro-4-((3S,5R)-3,4,5-trimethylpiperazin-1-yl)benzamide]
17 | 0.19 | 0.27 | 11 | – | – | – | C[C@@H]1CN(c2ccc(C(=O)Nc3ccc(Cl)c(-c4nc5cscc5[nH]4)c3)c(Cl)c2)C[C@H](C)N1C [Example 199, N-(3-(1H-thieno[3,4-d]imidazol-2-yl)-4-chlorophenyl)-2-chloro-4-((3S,5R)-3,4,5-trimethylpiperazin-1-yl)benzamide]
18 | 1.3 | 3.7 | 52 | – | – | – | C[C@@H]1CN(c2ccc(C(=O)Nc3ccc(Cl)c(-c4ccccn4)c3)c(Cl)c2)C[C@H](C)N1C [Example 208, N-(3-(pyridin-2-yl)-4-chlorophenyl)-2-chloro-4-((3S,5R)-3,4,5-trimethylpiperazin-1-yl)benzamide]
